Results as given in patent publication US20210277009A1, “PRMT5 INHIBITORS” (Merck Sharp & Dohme Corp., priority 2018, published 2021).
Counter-ions that a name gives are not always drawn. Like-named read-outs stand apart in the source and are kept apart here.

What was measured:
[1] = target: T1, PRMT5-MEP50 enzyme complex (Homo sapiens, UniProt O14744); experiment: PRMT5-MEP50 Enzyme Methylation Assay; assay type: biochemical
T1 construct: 1.25 nM of Full-length (FL)-PRMT5-MEP50 enzyme complex; made in house; host or cells: baculovirus-transfected Sf21 cells
T1 sequence (O14744 whole entry): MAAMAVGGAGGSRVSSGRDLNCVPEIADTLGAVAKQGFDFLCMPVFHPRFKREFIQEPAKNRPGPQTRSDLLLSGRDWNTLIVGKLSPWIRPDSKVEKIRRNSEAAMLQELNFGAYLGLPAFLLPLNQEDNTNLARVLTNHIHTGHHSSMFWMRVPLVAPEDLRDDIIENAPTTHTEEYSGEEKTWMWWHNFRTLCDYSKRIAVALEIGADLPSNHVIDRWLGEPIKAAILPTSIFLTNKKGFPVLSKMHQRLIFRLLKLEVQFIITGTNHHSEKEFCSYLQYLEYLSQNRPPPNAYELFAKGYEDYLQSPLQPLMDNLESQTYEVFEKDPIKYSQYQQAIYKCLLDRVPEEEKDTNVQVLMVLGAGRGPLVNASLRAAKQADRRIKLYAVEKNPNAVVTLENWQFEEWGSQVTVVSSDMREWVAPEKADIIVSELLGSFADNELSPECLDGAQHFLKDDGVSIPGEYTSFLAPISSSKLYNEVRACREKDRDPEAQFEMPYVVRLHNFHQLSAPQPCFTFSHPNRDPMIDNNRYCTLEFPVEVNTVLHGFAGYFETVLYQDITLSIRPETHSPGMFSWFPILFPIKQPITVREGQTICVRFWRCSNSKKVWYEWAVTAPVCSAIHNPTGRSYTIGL
T1 sequence (Q9BQA1 whole entry partner): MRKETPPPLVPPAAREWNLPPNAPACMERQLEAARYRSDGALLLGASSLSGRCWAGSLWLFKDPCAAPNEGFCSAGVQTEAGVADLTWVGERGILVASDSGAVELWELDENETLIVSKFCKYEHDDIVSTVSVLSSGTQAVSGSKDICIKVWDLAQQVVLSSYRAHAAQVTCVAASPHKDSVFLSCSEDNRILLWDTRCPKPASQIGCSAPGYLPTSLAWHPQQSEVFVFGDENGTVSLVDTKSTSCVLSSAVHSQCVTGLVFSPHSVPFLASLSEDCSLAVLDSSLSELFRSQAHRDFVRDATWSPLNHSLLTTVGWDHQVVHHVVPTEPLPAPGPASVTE
Protocol: PRMT5-MEP50 biochemical assay is a direct measurement of the methylation activity of the enzyme complex on a short peptide substrate derived from the N-terminus of H4 histone. Methylation experiment is performed with recombinant PRMT5-MEP50 protein complex. The assessment of inhibitory effect of small molecules is measured by tire effectiveness of the compounds to inhibit tins reaction (EC50).
In this assay, the potency (EC50) of each compound was determined from a twenty-point (1:2 serial dilution; top compound concentration of 100000 nM) titration curve using the following outlined procedure. To each well of a white ProxiPlus 384 well-plate, 100 nL of compound (1% DMSO in final assay volume of 10 μL) was dispensed, followed by the addition of 8 μL of 1× assay buffer (50 mM Bicine pH 8.0, 1 mM DTT, 0.004% Tween20, 0.01% BSA) containing 1.25 nM of Full-length (FL)-PRMT5-MEP50 enzyme complex (recombinant proteins from baculovirus-transfected Sf21 cells: FL-PRMT5; MW=[…] and FL-MEP50; MW=38614) and 1 μL of 150 μM S-(5′-Adenosyl)-L-Methionine Chloride (SAM). Plates were sealed and placed in a 37° C. humidified chamber for a 60 minutes pre-incubation with compound. Subsequently, each reaction was initiated by the addition of 1 μL 1× assay buffer containing 750 nM biotinylated H4R3(Mel) peptide. The final reaction in each well of 10 μL consists of 1.0 nM PRMT5-MEP50, 75 nM biotinylated-peptide, and […] SAM. Methylation reactions were allowed to proceed for 150 minutes in a sealed plate at 37° C. Reactions were immediately quenched by the addition of 1 μL of 5% formic acid. Plates were then frozen and shipped to SAMDITM Tech Inc. to determine the percent conversion from H4R3(Mel) to H4R3(Me2). Dose-response curves were generated by plotting percent effect (% product conversion; Y-axis) vs. Log 10 compound concentrations (X-axis). EC50 values were determined by non-linear regression according to models for either sigmoidal (4 parameters) or biphasic (7 parameters) dose-response curves.

[2] = system: symmetric dimethylation of arginine (SDMA) of PRMT5 substrates in MCF-7 cells; experiment: PRMT5 Cell Target Engagement (TE) Assay; assay type: cell-based; conditions: treated for 3 days, nuclear SDMA by high content imaging, top concentration 10000 nM
Excerpt: The PRMT5 TE assay is a biomarker assay for identifying compounds that inhibit symmetric dimethylation of arginine (SDMA) of PRMT5 substrates. The following substrates have been reported for PRMT5: histone H2A and H4 R3, Histone H3 R2, Histone H3 R8, spliceosome Sm proteins, ribosomal protein RPS10, p53, FEN1, nudeoplasmin, nucleolin, EGFR and EBNA. The assay will focus on detecting symmetrically dimethylated nuclear proteins using high content imaging technology. Detection of the expression of symmetrically dimethylated nuclear proteins is through a mixture of primary rabbit monoclonal antibodies to SDMA (CST 13222), which in turn recognized by an Alexafluor 488 dye-conjugated anti-rabbit IgG secondary antibody. The IN Cell Analyzer 2200 or Opera-Phenix measures nuclear Alexafluor 488 fluorescent dye intensity that is directly related to the level of expression of symmetrically dimethylated nuclear proteins at the single cell level. Nuclear AF488 dye intensities are compared to the mean value for DMSO treated cells (MIN) to report percent of inhibition for each compound-treated well.
In this assay, the cell potency (EC50) of each compound was determined from a ten point (1:3 serial dilution; top compound concentration of 10000 nM) titration curve using the following outlined procedure. Each well of a BD falcon collagen coated black/clear bottom 384-well plate was seeded with 4000 MCF-7 cells in 30 μl media and allowed to attach for 5 h. Media is ATCC-formulated Eagle's Minimum Essential Medium, Catalog No. 30-2003. To make the complete growth medium, the following components were added to the base medium: 0.01 mg/ml human recombinant insulin; fetal bovine serum to a final concentration of 10%. Additional 30 μl of media containing 2× compounds were added to each well. Cells were treated for 3 days in 37° C. CO2 incubator. On day 3, cells were fixed with Cytofix, permeablized with 0.4% Triton-X-100/Cytofix, and washed with D-PBS without Ca/Mg. Cells were blocked with Licor Odessey blocking reagent for 1 h at room temperature, followed by incubation with anti-SDMA (1:1000) antibody at 4° C. overnight. 1° antibody was removed, followed by three washings with DPBS without Ca/Mg and 0.05% Tween20. Hoechst (5 μg/ml), Cell Mask deep stain (1:2000) and Alexa488-conjugated goat anti-rabbit IgG (2 μg/mL) was added for 1 hour at room temperature. A final washing step (three washes) was performed before sealing plate for imaging on In Cell Analyzer 2200 or Opera-Phenix. Images from analyzer were uploaded to Columbus (at WP or BOS) for image analysis. IC50 values were determined by 4 parameters robust fit of percent fluorescence units vs. (Logic) compound concentrations.

[3] = single EC50 from 4 parameters single site sigmoidal model, or first EC50 of 7 parameters biphasic model, 1.0 nM PRMT5-MEP50, H4R3(Me1) peptide, SAM, read-out: Enzyme Methylation Assay (EC50 or EC50_1)
[4] = second EC50 of 7 parameters biphasic model, read-out: Enzyme Methylation Assay (EC50_2)

Row | Compound | EC50 [1, 3] | EC50 ([2]; Homo sapiens, MCF7, 72 h) | EC50 [1, 4] | EC50 [2]
1 | Nc1ccc2ccc(CC[C@H]3S[C@@H](n4ccc5c(N)ncnc54)[C@H](O)[C@@H]3O)cc2n1 [Example 14, (2R,3R,4S,5R)-2-(4-amino-7H-pyrrolo[2,3-d]pyrimidin-7-yl)-5-(2-(2-aminoquinolin-7-yl)ethyl)tetrahydrothiophene-3,4-diol TFA salt] | 0.3 nM | 0.7 nM |  | 
2 | Nc1ccc2ccc(CC[C@@H]3S[C@@H](n4ccc5c(N)ncnc54)[C@H](O)[C@@H]3O)cc2n1 [Example 15, (2R,3R,4S,5S)-2-(4-amino-7H-pyrrolo[2,3-d]pyrimidin-7-yl)-5-(2-(2-aminoquinolin-7-yl)ethyl)tetrahydrothiophene-3,4-diol] | 0.9 nM | 1.4 nM |  | 
3 | Cc1ncnc2c1ccn2[C@@H]1S[C@@H](CCc2ccc3ccc(N)nc3c2)[C@@H](O)[C@H]1O [Example 16, (2S,3S,4R,5R)-2-[2-(2-aminoquinolin-7-yl)ethyl]-5-(4-methyl-7H-pyrrolo[2,3-d]pyrimidin-7-yl)tetrahydrothiophene-3,4-diol] | 1.7 nM | 1.6 nM |  | 
4 | Cc1ncnc2c1ccn2[C@@H]1S[C@H](CCc2ccc3ccc(N)nc3c2)[C@@H](O)[C@H]1O [Example 17] | 0.4 nM | 0.6 nM |  | 
5 | Cc1ncnc2c1ccn2[C@@H]1S[C@H](CCc2ccc3cc(Br)c(N)nc3c2)[C@@H](O)[C@H]1O [Example 18, (2R,3S,4R,5R)-2-(2-(2-amino-3-bromoquinolin-7-yl)ethyl)-5-(4-methyl-7H-pyrrolo[2,3-d]pyrimidin-7-yl)tetrahydrothiophene-3,4-diol] | 2.2 nM | 5 nM |  | 
6 | Cc1ncnc2c1ccn2[C@@H]1S[C@@H](CCc2ccc3cc(Br)c(N)nc3c2)[C@@H](O)[C@H]1O [Example 19] | 0.4 nM | 8.4 nM | 50.1 nM | 
7 | Cc1ncnc2c1ccn2[C@@H]1S[C@H](CCc2ccc3cc(C(F)(F)F)c(N)nc3c2)[C@@H](O)[C@H]1O [Example 20, (2R,3S,4R,5R)-2-{2-[2-amino-3-(triflnoromethyl)quinolin-7-yl]ethyl}-5-(4-methyl-7H-pyrrolo[2,3-d]pyrimidin-7-yl)tetrahydrothionhene-3,4-diol] | 0.7 nM | 741 nM | 120 nM | 
8 | Cc1ncnc2c1ccn2[C@@H]1S[C@@H](CCc2ccc3cc(C(F)(F)F)c(N)nc3c2)[C@@H](O)[C@H]1O [Example 21, (2S,3S,4R,5R)-2-{2-[2-amino-3-(trifluoromethyl)quinolin-7-yl]ethyl}-5-(4-methyl-7H-pyrrolo[2,3-d]pyrmidin-7-yl)tetrahydrothiophene-3,4-diol] | 7.4 nM | ≥ 10000 nM |  | 
9 | Cc1ncnc2c1ccn2[C@@H]1S[C@H](CCc2ccc3cc(F)c(N)nc3c2)[C@@H](O)[C@H]1O [Example 22, (2R,3S,4R,5R)-2-[2-(2-amino-3-fluoroquinolin-7-yl)ethyl]-5-(4-methyl-7H-pyrrolo[2,3-d]pyrimidin-7-yl)tetrahydrodrothiophene-3,4-diol] | 10.1 nM | 5.9 nM |  | 
10 | Cc1ncnc2c1ccn2[C@@H]1S[C@@H](CCc2ccc3cc(F)c(N)nc3c2)[C@@H](O)[C@H]1O [Example 23, (2S,3S,4R,5R)-2-[2-(2-amino-3-fluoroquinolin-7-yl)ethyl]-5-(4-methyl-7H-pyrrolo[2,3-d]pyrimidin-7-yl)tetrahydrothiophene-3,4-diol] | 58.3 nM | 41.9 nM |  | 
11 | Cc1ncnc2c1ccn2[C@@H]1S[C@H](CCc2ccc3cc(Cl)c(N)nc3c2)[C@@H](O)[C@H]1O [Example 24] | 1.5 nM | 17.4 nM |  | 
12 | Cc1ncnc2c1ccn2[C@@H]1S[C@@H](CCc2ccc3cc(Cl)c(N)nc3c2)[C@@H](O)[C@H]1O [Example 25, (2S,3S,4R,5R)-2-[2-(2-amino-3-chloroquinolin-7-yl)ethyl]-5-(4-methy1-7H-pyrrolo[2,3-d]pyrimidin-7-yl)tetrahydrothiophene-3,4-diol] | 1.3 nM | 8.4 nM |  | 
13 | Cc1ncnc2c1ccn2[C@@H]1S[C@H](CCc2ccc3ccc(NCC(F)F)nc3c2)[C@@H](O)[C@H]1O [Example 26, (2R,3S,4R,5R)-2-(2-{2-[(2,2-difluoroethyl)amino]quinolin-7-yl}ethyl)-5-(4-methyl-7H-pyrrolo[2,3-d]pyrimidin-7-yl)tetrahydrothiophene-3,4-diol] | 59.6 nM |  |  | 10.5 nM
14 | C[C@]1(CCc2ccc3cc(Br)c(N)nc3c2)S[C@@H](n2ccc3c(N)ncnc32)[C@H](O)[C@@H]1O [Example 30] | 0.3 nM | 0.5 nM |  | 

Second part, the molecule after the results:

Row | EC50 [1, 3] | EC50 ([2]; Homo sapiens, MCF7, 72 h) | EC50 [1, 4] | EC50 [2] | Compound
15 | 0.7 nM | 53.4 nM |  |  | C[C@]1(CCc2ccc3cc(Br)c(N)nc3c2)S[C@@H](n2ccc3c(Cl)ncnc32)[C@H](O)[C@@H]1O [Example 31, (2R,3S,4R,5R)-2-(2-(2-amino-3-bromoquinolin-7-yl)ethyl)-5-(4-chloro-7H-pyrrolo[2,3-d]pyrimidin-7-yl)-2-methyltetrahydrothiophene-3,4-diol]
16 | 0.6 nM | 5.6 nM |  |  | Cc1ncnc2c1ccn2[C@@H]1S[C@](C)(CCc2ccc3cc(Br)c(N)nc3c2)[C@@H](O)[C@H]1O [Example 32]
17 | 0.8 nM | 13.5 nM |  |  | CNc1ncnc2c1ccn2[C@@H]1S[C@](C)(CCc2ccc3cc(Br)c(N)nc3c2)[C@@H](O)[C@H]1O [Example 33, (2R,3S,4R,5R)-2-(2-(2-amino-3-bromoquinolin-7-yl)ethyl)-2-methyl-5-(4-(methylamino)-7H-pyrrolo[2,3-d]pyrimidin-7-yl)tetrahydrothiophene-3,4-diol]
18 | 0.5 nM | 29.1 nM | 151 nM |  | Cc1cn([C@@H]2S[C@H](CCc3ccc4cc(Br)c(N)nc4c3)[C@@H](O)[C@H]2O)c2ncnc(N)c12 [Example 34, (2R,3S,4R,5R)-2-(2-(2-amino-3-bromoquinolin-7-yl)ethyl)-5-(4-amino-5-methyl-7H-pyrrolo[2,3-d]pyrimidin-7-yl)tetrahydrothiophene-3,4-diol]
19 | 1.7 nM | 35.6 nM |  |  | Cc1nc(N)c2ccn([C@@H]3S[C@H](CCc4ccc5cc(Br)c(N)nc5c4)[C@@H](O)[C@H]3O)c2n1 [Example 35, (2R,3R,4S,5R)-2-(4-amino-2-methyl-7H-pyrrolo[2,3-d]pyrimidin-7-yl)-5-(2-(2-amino-3-bromoquinolin-7-yl)ethyl)tetrahydrothiophene-3,4-diol]
20 | 0.6 nM | 81.1 nM | 15.3 nM |  | CNc1ncnc2c1ccn2[C@@H]1S[C@H](CCc2ccc3cc(Br)c(N)nc3c2)[C@@H](O)[C@H]1O [Example 36]
